Test results taken from publication PMC8022858, “Discovery of bone morphogenetic protein 7-derived peptide sequences that attenuate the human osteoarthritic chondrocyte phenotype” (Molecular Therapy. Methods & Clinical Development, 2021).

Test system: HACs in OA synovial fluid (SF)
Assay: Peptide bioactivity on HACs cultured in OA synovial fluid (gene expression, sGAG, ALP activity, PGE2)
Assay type: cell-based, human
Conditions: 100 nM peptide, 20% (v/v) OA SF; for sGAG content of HAC cultures: 24 h (Figure 3D); for retainment of bioactivity on ALP activity in OA SF environment: 24 h (Figure 3E); for retainment of bioactivity on PGE2 secretion in OA SF environment: 24 h (Figure 3F); for expression of NKX3-2 / OA SF-induced expression of RUNX2, COL10A1, ALPL, MMP13, ADAMTS5, COX-2, and IL6 / OA SF-induced decline of SOX9 and COL2A1 expression: 24 h; for expression of NKX3-2: n = 3 donors (Figure 3A); for OA SF-induced expression of RUNX2, COL10A1, ALPL, MMP13, ADAMTS5, COX-2, and IL6: n = 3 donors (Figures 3B, 3C); for OA SF-induced decline of SOX9 and COL2A1 expression: n = 3 donors in triplicate (Figure 3A)
Description: To further corroborate the potential OA-protective properties of peptides p[63−82] and p[113−132], we mimicked the OA environment by exposing non-OA-HACs to OA SF. Culturing non-OA-HACs in the presence of OA SF reduced their SOX9, COL2A1, and NKX3-2 expression (Figure 3A), whereas expression of RUNX2, COL10A1, ALPL, MMP13, ADAMTS5, COX-2, and IL6 was induced by OA SF (Figures 3B and 3C). This was accompanied by increased ALP activity and PGE2 secretion (Figures 3E and 3F). […] The OA SF-induced expression of RUNX2, COL10A1, ALPL, MMP13, ADAMTS5, COX-2, and IL6 was, without exception, mitigated by peptides p[63−82] and p[113−132] (Figures 3B and 3C). sGAG content of HAC cultures was unaltered by the peptides (Figure 3D). Retainment of peptide p[63−82] and p[113−132] bioactivity on HACs in an OA SF environment was also confirmed for ALP activity (Figure 3E) and PGE2 secretion (Figure 3F).
Figure 3 Bioactivity of peptides p[63−82] and p[113−132] on OA articular chondrocytes in OA synovial fluid (SF) […] (n = 3 individual donors, tested in triplicate) were exposed to 100 nM peptide p[63−82] or p[113−132] in the presence of OA SF (20% [v/v]; equal ratio mix from five individual donors). Control is 20% (v/v) 0.9% NaCl. Cells were cultured in these conditions for 24 h and analyzed for mRNA expression of indicated genes (normalized for 28S rRNA expression and relative to control condition). (A) Expression of SOX9, COL2A1, and NKX3-2 mRNAs. (B) Expression of RUNX2, COL10A1, and ALPL mRNAs. (C) Expression of MMP13, ADAMTS5, COX-2, and IL-6 mRNAs. (D) GAG content (normalized to total protein content) was determined in the same conditions. (E) ALP enzyme activity in cell lysates of the same conditions was determined and normalized for total protein content. (F) PGE2 levels in culture supernatants of the same conditions. Error bars represent mean ± SEM, and statistical significance for peptide conditions or control versus SF condition as determined by unpaired two-tailed Student’s t test is represented as ∗p < 0.05, ∗∗p < 0.01, and ∗∗∗p < 0.001.
Cartilage was obtained from total knee arthroplasty of end-stage (K&L grades 3−4) OA patients and from resected knee cartilage from cartilage repair procedures of non-OA patients. Medical ethical permission was received from the Maastricht University Medical Center Medical Ethical Committee (approval number 2017-0183). Chondrocytes were isolated using collagenase as described earlier.[27] The HACs were cultured until passage two in DMEM/F12 (Life Technologies), 10% fetal calf serum (FCS; Sigma-Aldrich), 1% antibiotic/antimycotic (Life Technologies), and 1% non-essential amino acids (Life Technologies) in a humidified atmosphere at 37°C, 5% CO2. SW1353 cells (ATCC HTB-94, short tandem repeat [STR] profiled)[54] were cultured in identical conditions. For experiments, cells were plated in technical triplicates at 30,000 cells/cm^2. BMP7 (R&D Systems) was used at 1 nM. OA SF was perioperatively collected from OA patients (same medical ethics statement [2017-0183] as for cartilage above) and was centrifuged to remove cells/debris. For experiments, an SF pool from five OA patients was prepared (equal volume ratios) and applied on cells in a 20% (v/v) concentration. For RNAi, scrambled and NKX3-2 siRNA duplexes (Table S1) were custom made (Eurogentec). Transfection (100 nM siRNA) in HACs was performed using HiPerFect (QIAGEN) according to the manufacturer’s protocol. The BRE reporter,[32] CAGA12 reporter,[33] or cytomegalovirus (CMV)-Gaussia as transfection control[55] were transfected (100 ng/μL) in SW1353 cells using FuGENE (Promega) according to the manufacturer’s protocol. […]

Row | Substance | sGAG content of HAC cultures | retainment of bioactivity on ALP activity in OA SF environment | retainment of bioactivity on PGE2 secretion in OA SF environment | expression of NKX3-2 | OA SF-induced expression of RUNX2, COL10A1, ALPL, MMP13, ADAMTS5, COX-2, and IL6 | OA SF-induced decline of SOX9 and COL2A1 expression
1 | H-AAYYSEGESAFPLNSYMNAT-OH [p[63−82]] | unaltered | confirmed | confirmed | induced by the peptides to levels higher than in the control condition | mitigated | counteracted to some extent
2 | H-SVLYFDDSSNVILKKYRNMV-OH [p[113−132]] | unaltered | confirmed | confirmed | induced by the peptides to levels higher than in the control condition | mitigated | counteracted to some extent
